Key:
[1] = biological target: T1, human A1 adenosine Receptor (Homo sapiens, UniProt P30542); assay: KiA1 (human) receptor binding
T1 sequence (P30542 1-326): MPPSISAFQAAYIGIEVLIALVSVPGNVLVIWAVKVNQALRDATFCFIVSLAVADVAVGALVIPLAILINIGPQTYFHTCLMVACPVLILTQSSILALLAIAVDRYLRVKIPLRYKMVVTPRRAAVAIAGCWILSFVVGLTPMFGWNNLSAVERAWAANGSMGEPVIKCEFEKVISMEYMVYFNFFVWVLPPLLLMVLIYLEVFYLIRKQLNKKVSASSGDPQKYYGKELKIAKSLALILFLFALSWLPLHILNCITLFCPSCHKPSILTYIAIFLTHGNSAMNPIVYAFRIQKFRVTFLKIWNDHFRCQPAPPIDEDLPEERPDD
Protocol: The receptor binding values described hereinafter were determined analogously to Ensinger et al. in “Cloning and functional characterisation of human A1 adenosine Receptor—Biochemical and Biophysical Communications, Vol 187, No. 2, 919-926, 1992”.
The Table which follows contains KiA1 (human) receptor binding values.

[2] = biological target: T2, human A3-adenosine receptor (Homo sapiens, UniProt P0DMS8); assay: KiA3 (human) receptor binding
T2 sequence (P0DMS8 1-318): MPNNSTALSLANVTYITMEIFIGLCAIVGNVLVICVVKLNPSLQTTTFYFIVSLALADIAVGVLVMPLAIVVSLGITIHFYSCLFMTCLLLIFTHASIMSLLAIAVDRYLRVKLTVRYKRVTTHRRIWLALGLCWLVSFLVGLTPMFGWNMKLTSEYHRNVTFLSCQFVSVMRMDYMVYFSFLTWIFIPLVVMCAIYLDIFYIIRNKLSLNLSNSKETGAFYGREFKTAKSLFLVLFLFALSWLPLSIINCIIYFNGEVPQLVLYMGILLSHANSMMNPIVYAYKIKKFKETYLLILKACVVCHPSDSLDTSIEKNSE
Protocol: The A3 receptor binding values given hereinafter were determined analogously to […]. “Molecular cloning and characterization of the human A3-adenosine receptor” (Proc. Natl. Acad. Sci. USA 90, 10365-10369, 1993).

Row | Substance | Ki [1] | Ki [2]
1 | 4-Ethyl-2-(2-phenylethyl)-7-n-propyl-imidazo[4.5-e]-s-triazolo[1.5-a]pyrimidin-5-one [Example 83] | 8.1 nM | –
2 | 4-Ethyl-7-methyl-2-(2-phenylethyl)-imidazo[4.5-e]-s-triazolo[1.5-a]pyrimidin-5-one [Example 81] | – | 7.2 nM

From patent publication US6492377B1, “Imidazotriazolopyrimidines with adenosine-antagonistic activity” (Boehringer Ingelheim Pharma KG, priority 1998, dated 2002)
